The source of these data is publication PMC10281321, “Discovery of an effective anti-inflammatory agent for inhibiting the activation of NF-κB” (Journal of Enzyme Inhibition and Medicinal Chemistry, 2023).

By IC50 is commonly meant the concentration needed to halve the response being measured. The low end stands for greater potency, the high end for weaker potency.

Holding throughout (assay type): cell-based
Series [1] relates to LPS-stimulated RAW264.7 cells. Put plainly: NO release inhibition in LPS-stimulated RAW264.7 cells (Griess reagent). The conditions noted are these: for IC50: Mus musculus, LPS-stimulated RAW264.7 cells, Griess Reagent; for anti-inflammatory activity (in words): SAR summary covering NO release and NF-κB reporter inhibition. The protocol: After incubated for 24 hours, cells were treated with tested compounds for different
concentrations(3.125,6.25,12.5,25 and 50μM) for 1 h, and then treated with 1 μg/mL LPS
for further 24 h. The supernatants were collected and NO level was measured using
Griess reagent (Beyotime, China). […]
In general terms: The Griess reaction detects nitrite, a stable product of nitric oxide.

The test system of another series is NF-κB. In words: NF-κB transcriptional activity dual-luciferase reporter assay, TNF-α stimulated. The note with it: Homo sapiens, HEK-293T, HEK293T cells transfected with NF-κB reporter plasmid, stimulated by TNF-α. The protocol:
4.5. NF-κB transcriptional activity assay
HEK293T cells were seeded into 96 well plate at a density of 1×10^5 cells per well. After incubated for 24 hours, cells were transfected with NF-κB reporter plasmid at 100 ng/well using lip2000.Six hours later, the medium was replaced by fresh medium containing tested compounds with different concentrations. Then incubated for another hour, TNF-α was added for a final concentration at 10 ng/mL.12 hours later, the cell lysate was collected and the RLU was measured by microplate reader. […]
(A reporter such as luciferase makes a cellular process visible.)

A short description of series [2]: Cytotoxicity by MTT assay.

Take `Cc1ccc(S(=O)(=O)/C=C/C#N)cc1` [Bay11-7082, reference compound]: the IC50 in series [1] worked out at 2.1 ± 0.7 µM; with NF-κB it was 0.0915 ± 0.0103 µM; in series [2] it was 22.7 ± 3.4 µM.

For `CCc1ccc(-c2cnc(N)c(C(=O)Nc3ccccc3)c2)cc1` [Compound 6], the IC50 is 19.7 ± 2.6 µM in series [1], 1.62 ± 0.0132 µM with NF-κB and more than 25 µM in series [2].

As for `CCc1ccc(-c2cnc(N)c(C(=O)Nc3ccc(C)cc3)c2)cc1` [Compound 7], the IC50 was 26.7 ± 3.2 µM in series [1], more than 2 µM in the series with NF-κB and more than 25 µM in series [2].

In the case of `CCc1ccc(-c2cnc(N)c(C(=O)Nc3cccc(C)c3)c2)cc1` [Compound 8], the IC50 is 15.2 ± 2.8 µM in series [1], 1.329 ± 0.0115 µM in the series with NF-κB and more than 25 µM in series [2].

As to `CCc1ccc(-c2cnc(N)c(C(=O)Nc3ccccc3C)c2)cc1` [Compound 9], the IC50 in series [1] is 30.2 ± 4 µM; in the series with NF-κB, more than 2 µM; in series [2], more than 25 µM.

In the case of `CCc1ccc(-c2cnc(N)c(C(=O)Nc3ccc(N)cc3)c2)cc1` [Compound 10], the concentration for half-maximal inhibition (IC50) in series [1] came to 2.3 ± 0.9 µM; in the series with NF-κB, 0.42 ± 0.0104 µM; in series [2] it was 7.3 ± 1.2 µM.

Turning to `CCc1ccc(-c2cnc(N)c(C(=O)Nc3cccc(N)c3)c2)cc1` [Compound 11], the IC50 was 1.7 ± 0.9 µM in series [1], 0.0958 ± 0.0062 µM with NF-κB and more than 25 µM in series [2].

As for `CCc1ccc(-c2cnc(N)c(C(=O)Nc3ccccc3N)c2)cc1` [Compound 12], the IC50 is 0.9 ± 0.5 µM in series [1], 0.571 ± 0.0093 µM in the series with NF-κB and 4.7 ± 1 µM in series [2].

For `CCc1ccc(-c2cnc(N)c(C(=O)Nc3ccc(NC(C)=O)cc3)c2)cc1` [Compound 13], the IC50 is 10.2 ± 5.4 µM in series [1], 0.7139 ± 0.0042 µM in the series on NF-κB and more than 25 µM in series [2]. Further, in series [2], the “cytotoxicity (in words)” value is listed as “cytotoxicity is reduced”.

Regarding `CCc1ccc(-c2cnc(N)c(C(=O)Nc3cccc(NC(C)=O)c3)c2)cc1` [Compound 14], the results for the IC50 (in series [1]; in the series with NF-κB; in series [2]) were 3.2 ± 1.1 µM, 0.167 ± 0.0084 µM and more than 25 µM, respectively. In addition, the “anti-inflammatory activity (in words)” value in series [1] is on record as “strong anti-inflammatory activity”.

Consider `CCc1ccc(-c2cnc(N)c(C(=O)Nc3ccccc3NC(C)=O)c2)cc1` [Compound 15], for which the half-inhibitory concentration (IC50) in series [1] was 1.1 ± 0.4 µM; in the series with NF-κB it was 0.532 ± 0.0135 µM; in series [2], 3.2 ± 0.8 µM. For the same compound, the “anti-inflammatory activity (in words)” value in series [1] is listed as “strong anti-inflammatory activity”.

Regarding `CCc1ccc(-c2cnc(N)c(C(=O)Nc3ccc(F)cc3)c2)cc1` [Compound 16], the IC50 in series [1] was more than 50 µM; in the series with NF-κB, more than 2 µM; in series [2] it was more than 25 µM.

Turning to `CCc1ccc(-c2cnc(N)c(C(=O)Nc3ccc(Cl)cc3)c2)cc1` [Compound 17], the IC50 is more than 50 µM in series [1], more than 2 µM in the series on NF-κB and more than 25 µM in series [2].

For the compound `CCc1ccc(-c2cnc(N)c(C(=O)Nc3ccc(OC(F)(F)F)cc3)c2)cc1` [Compound 18], the IC50 was more than 50 µM in series [1], more than 2 µM with NF-κB and more than 25 µM in series [2]. Besides, the “anti-inflammatory activity (in words)” value in series [1] is recorded as “loss of anti-inflammatory activity”.

Turning to `CCc1ccc(NC(=O)c2cc(-c3ccc(CC)cc3)cnc2N)cc1` [Compound 19], the results for the IC50 (in series [1]; with NF-κB; in series [2]) were 28.5 ± 2.1 µM, more than 2 µM and more than 25 µM, respectively.

For the compound `CCc1ccc(-c2cnc(N)c(C(=O)Nc3ccc(OC)cc3)c2)cc1` [Compound 20], the IC50 is 22 ± 0.8 µM in series [1], more than 2 µM in the series on NF-κB and more than 25 µM in series [2].

Take `CCc1ccc(-c2cnc(N)c(C(=O)Nc3ccc(C(C)C)cc3)c2)cc1` [Compound 21]: the IC50 in series [1] was more than 50 µM; with NF-κB, more than 2 µM; in series [2], more than 25 µM.

Regarding `CCc1ccc(-c2cnc(N)c(C(=O)Nc3ccc(C(N)=O)cc3)c2)cc1` [Compound 22], the results for the IC50 (in series [1]; with NF-κB; in series [2]) were more than 50 µM, more than 2 µM and more than 25 µM, respectively. Besides, in series [1], the “anti-inflammatory activity (in words)” value was “loss of anti-inflammatory activity”.

For `CCc1ccc(-c2cccc(C(=O)Nc3ccc(NC(C)=O)cc3)c2)cc1` [Compound 23], the figures for the IC50 (in series [1]; in the series with NF-κB; in series [2]) were 32.7 ± 3.4 µM, more than 2 µM and more than 25 µM, respectively.

In the case of `CCc1ccc(-c2cc(C(=O)Nc3ccc(NC(C)=O)cc3)ccn2)cc1` [Compound 24], the IC50 in series [1] was 14.1 ± 1.7 µM; with NF-κB it was 0.763 ± 0.0151 µM; in series [2] it was more than 25 µM.

`CCc1ccc(-c2cncc(C(=O)Nc3ccc(NC(C)=O)cc3)c2)cc1` [Compound 25]: the IC50 in series [1] is 25.4 ± 3.1 µM; in the series with NF-κB, 1.33 ± 0.0163 µM; in series [2], more than 25 µM.

For the compound `CCc1ccc(-c2ccnc(C(=O)Nc3ccc(NC(C)=O)cc3)c2)cc1` [Compound 26], the figures for the IC50 (in series [1]; in the series on NF-κB; in series [2]) were 19.5 ± 3.2 µM, 1.96 ± 0.0535 µM and more than 25 µM, respectively.

With `CCc1ccc(-c2cc(C(=O)Nc3ccc(NC(C)=O)cc3)cnc2N)cc1` [Compound 27], the IC50 in series [1] is 21.5 ± 2.6 µM; in the series on NF-κB, 1.11 ± 0.0124 µM; in series [2], more than 25 µM.

Turning to `CC(=O)Nc1ccc(NC(=O)c2cc(-c3ccc(C)cc3)cnc2N)cc1` [Compound 28], the IC50 in series [1] was 24.2 ± 4.1 µM; in the series with NF-κB, more than 2 µM; in series [2], more than 50 µM. Besides, the “anti-inflammatory activity (in words)” value in series [1] is recorded as “anti-inflammatory activity decreased significantly”.

As to `CC(=O)Nc1ccc(NC(=O)c2cc(-c3cccc(C)c3)cnc2N)cc1` [Compound 29], the values for the IC50 (in series [1]; with NF-κB; in series [2]) were more than 50 µM, more than 2 µM and more than 50 µM, respectively. Besides, the “anti-inflammatory activity (in words)” value in series [1] is “anti-inflammatory activity decreased significantly”.

For the compound `CC(=O)Nc1ccc(NC(=O)c2cc(-c3ccc(S(C)(=O)=O)cc3)cnc2N)cc1` [Compound 30], the IC50 in series [1] is 17.8 ± 2.7 µM; in the series with NF-κB, 1.04 ± 0.0175 µM; in series [2] it was more than 50 µM.

For `COc1ccc(-c2cnc(N)c(C(=O)Nc3ccc(NC(C)=O)cc3)c2)cc1` [Compound 31], the IC50 is more than 50 µM in series [1], more than 2 µM in the series with NF-κB and more than 50 µM in series [2].

`COc1cccc(-c2cnc(N)c(C(=O)Nc3ccc(NC(C)=O)cc3)c2)c1` [Compound 32]: the IC50 in series [1] is more than 50 µM; with NF-κB it was more than 2 µM; in series [2], more than 50 µM.

Regarding `COc1ccccc1-c1cnc(N)c(C(=O)Nc2ccc(NC(C)=O)cc2)c1` [Compound 33], the IC50 in series [1] is more than 50 µM; in the series on NF-κB it was more than 2 µM; in series [2], more than 50 µM.

Regarding `COc1ccc(-c2cnc(N)c(C(=O)Nc3ccc(NC(C)=O)cc3)c2)c(OC)c1OC` [Compound 34], the figures for the IC50 (in series [1]; in the series on NF-κB; in series [2]) were more than 50 µM, more than 2 µM and more than 50 µM, respectively.

As to `CC(=O)Nc1ccc(NC(=O)c2cc(-c3ccc(Cl)cc3)cnc2N)cc1` [Compound 35], the IC50 is 4.2 ± 0.8 µM in series [1], 0.207 ± 0.013 µM in the series with NF-κB and more than 50 µM in series [2]. The “anti-inflammatory activity (in words)” value in series [1] is on record as “significantly improved the anti-inflammatory activity”.

In the case of `CC(=O)Nc1ccc(NC(=O)c2cc(-c3cccc(Cl)c3)cnc2N)cc1` [Compound 36], the IC50 in series [1] is more than 50 µM; with NF-κB, more than 2 µM; in series [2], more than 50 µM.

Regarding `CC(=O)Nc1ccc(NC(=O)c2cc(-c3ccccc3Cl)cnc2N)cc1` [Compound 37], the figures for the IC50 (in series [1]; in the series with NF-κB; in series [2]) were more than 50 µM, more than 2 µM and more than 50 µM, respectively.

Turning to `CC(=O)Nc1ccc(NC(=O)c2cc(-c3ccc(F)cc3)cnc2N)cc1` [Compound 38], the results for the IC50 (in series [1]; in the series with NF-κB; in series [2]) were 13.7 ± 1.8 µM, 0.827 ± 0.0186 µM and more than 50 µM, respectively.

For the compound `CC(=O)Nc1ccc(NC(=O)c2cc(-c3cccc(F)c3)cnc2N)cc1` [Compound 39], the IC50 in series [1] was more than 50 µM; in the series with NF-κB, more than 2 µM; in series [2], more than 50 µM.

Turning to `CC(=O)Nc1ccc(NC(=O)c2cc(-c3ccc(C(F)(F)F)cc3)cnc2N)cc1` [Compound 40], the IC50 was 26.5 ± 3 µM in series [1], more than 2 µM with NF-κB and more than 50 µM in series [2].

Take `CC(=O)Nc1ccc(NC(=O)c2cc(-c3cccc(C(F)(F)F)c3)cnc2N)cc1` [Compound 41]: the results for the IC50 (in series [1]; in the series with NF-κB; in series [2]) were 8.4 ± 1.7 µM, 0.307 ± 0.0214 µM and more than 50 µM, respectively.

In the case of `CC(=O)Nc1ccc(NC(=O)c2cc(-c3ccccc3C(F)(F)F)cnc2N)cc1` [Compound 42], the figures for the concentration for half-maximal inhibition (IC50) (in series [1]; in the series on NF-κB; in series [2]) were 14.6 ± 2.3 µM, 1.01 ± 0.0184 µM and more than 50 µM, respectively.

Turning to `CC(=O)Nc1ccc(NC(=O)c2cc(-c3ccc(O)cc3)cnc2N)cc1` [Compound 43], the IC50 in series [1] is more than 50 µM; in the series with NF-κB, more than 2 µM; in series [2] it was more than 50 µM.

As for `CC(=O)Nc1ccc(NC(=O)c2cc(-c3cccc(O)c3)cnc2N)cc1` [Compound 44], the IC50 in series [1] was more than 50 µM; in the series on NF-κB, more than 2 µM; in series [2], more than 50 µM.

Regarding `CC(=O)Nc1ccc(NC(=O)c2cc(-c3ccccc3O)cnc2N)cc1` [Compound 45], the figures for the IC50 (in series [1]; in the series with NF-κB; in series [2]) were more than 50 µM, more than 2 µM and more than 50 µM, respectively.

In the case of `CC(=O)Nc1ccc(NC(=O)c2cc(-c3ccc(C#N)cc3)cnc2N)cc1` [Compound 46], the figures for the half-maximal inhibitory concentration (IC50) (in series [1]; with NF-κB; in series [2]) were more than 50 µM, more than 2 µM and more than 50 µM, respectively.

Consider `CC(=O)Nc1ccc(NC(=O)c2cc(-c3cccc(C#N)c3)cnc2N)cc1` [Compound 47], for which the IC50 in series [1] is 28.9 ± 2.1 µM; with NF-κB it was more than 2 µM; in series [2], more than 50 µM.
